Source: ChEMBL document CHEMBL1131715 (Bioorg Med Chem Lett, 1999)

Test: Inhibitory activity against zinc-dependent Glutamate Carboxypeptidase G

Structure (SMILES) | Ki
O=C(O)CC[C@H](NP(O)(=S)c1ccccc1)C(=O)O (some centres not stated) | 3240 nM
CCCCP(O)(=S)N[C@@H](CCC(=O)O)C(=O)O (some centres not stated) | 264 nM
